Source: ChEMBL document CHEMBL1201862, “PubChem BioAssay data set” (2004)
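Briefly, cells in 96-well plates were exposed to five compound concentrations for 48 h, and endpoints were estimated by linear interpolation. The concentration for 50% growth inhibition is given as GI50.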 The source made the active and inactive calls. No stated cut-off is given here; in the data, active = GI50 up to about 1.1 µM and inactive = higher.

Key:
Assay in all cases: NCI tumour cell line growth inhibition, 48 h
786-0 = system: 786-0
A498 = system: A498
A549 = system: A549
ACHN = system: ACHN
BT-549 = system: BT-549
CAKI-1 = system: CAKI-1
CCRF-CEM = system: CCRF-CEM
COLO 205 = system: COLO 205
DU-145 = system: DU-145
EKVX = system: EKVX
HCC 2998 = system: HCC 2998
HCT-116 = system: HCT-116
HCT-15 = system: HCT-15
HL-60 = system: HL-60
HOP-62 = system: HOP-62
HOP-92 = system: HOP-92
Hs-578T = system: Hs-578T
IGROV-1 = system: IGROV-1
K562 = system: K562
KM12 = system: KM12
LOX IMVI = system: LOX IMVI
M14 = system: M14
MCF7 = system: MCF7
MDA-MB-231 = system: MDA-MB-231
MDA-MB-435 = system: MDA-MB-435
MDA-N = system: MDA-N
MOLT-4 = system: MOLT-4
NCI-H23 = system: NCI-H23
NCI-H460 = system: NCI-H460
NCI-H522 = system: NCI-H522
OVCAR-3 = system: OVCAR-3
OVCAR-4 = system: OVCAR-4
OVCAR-5 = system: OVCAR-5
PC-3 = system: PC-3
RPMI-8226 = system: RPMI-8226
SF-268 = system: SF-268
SF-295 = system: SF-295
SF-539 = system: SF-539
SK-MEL-28 = system: SK-MEL-28
SK-MEL-2 = system: SK-MEL-2
SK-MEL-5 = system: SK-MEL-5
SK-OV-3 = system: SK-OV-3
SN12C = system: SN12C
SNB-19 = system: SNB-19
SNB-75 = system: SNB-75
SR = system: SR
SW-620 = system: SW-620
T47D = system: T47D
TK-10 = system: TK-10
U-251 = system: U-251
UACC-257 = system: UACC-257
UACC-62 = system: UACC-62
UO-31 = system: UO-31
HT-29 = system: HT-29
Malme-3M = system: Malme-3M
OVCAR-8 = system: OVCAR-8
NCI-H226 = system: NCI-H226
NCI/ADR-RES = system: NCI/ADR-RES
RXF 393 = system: RXF 393

Compound: COc1cc2c(cc1-c1coc3cc(OCC=C(C)C)ccc3c1=O)OCO2
- GI50 (786-0): 19.9 µM (inactive)
- GI50 (A498): 33.4 µM (inactive)
- GI50 (A549): 28.6 µM (inactive)
- GI50 (ACHN): 29.3 µM (inactive)
- GI50 (BT-549): 16.8 µM (inactive)
- GI50 (CAKI-1): 19.8 µM (inactive)
- GI50 (CCRF-CEM): > 10 µM (inactive)
- GI50 (COLO 205): 29.4 µM (inactive)
- GI50 (DU-145): 34.9 µM (inactive)
- GI50 (EKVX): 24.3 µM (inactive)
- GI50 (HCC 2998): 15.4 µM (inactive)
- GI50 (HCT-116): 17.2 µM (inactive)
- GI50 (HCT-15): 9.77 µM
- GI50 (HL-60): 10 µM (inactive)
- GI50 (HOP-62): 29.8 µM (inactive)
- GI50 (HOP-92): 37.3 µM (inactive)
- GI50 (Hs-578T): 28.8 µM (inactive)
- GI50 (IGROV-1): 30.8 µM (inactive)
- GI50 (K562): 6.85 µM (inactive)
- GI50 (KM12): 13.8 µM (inactive)
- GI50 (LOX IMVI): 19.3 µM (inactive)
- GI50 (M14): 26.8 µM (inactive)
- GI50 (MCF7): 28.6 µM (inactive)
- GI50 (MDA-MB-231): 18.5 µM (inactive)
- GI50 (MDA-MB-435): 9.25 µM (inactive)
- GI50 (MDA-N): 6.7 µM (inactive)
- GI50 (MOLT-4): 10.9 µM (inactive)
- GI50 (NCI-H23): 24.4 µM (inactive)
- GI50 (NCI-H460): 19.1 µM (inactive)
- GI50 (NCI-H522): 15.5 µM (inactive)
- GI50 (OVCAR-3): 61.2 µM (inactive)
- GI50 (OVCAR-4): 13.5 µM (inactive)
- GI50 (OVCAR-5): 55.6 µM (inactive)
- GI50 (PC-3): 42.8 µM (inactive)
- GI50 (RPMI-8226): 15.3 µM (inactive)
- GI50 (SF-268): 43.4 µM (inactive)
- GI50 (SF-295): 33.6 µM (inactive)
- GI50 (SF-539): 36.2 µM (inactive)
- GI50 (SK-MEL-28): 45.8 µM (inactive)
- GI50 (SK-MEL-2): 48.1 µM (inactive)
- GI50 (SK-MEL-5): 16.8 µM (inactive)
- GI50 (SK-OV-3): 41.5 µM (inactive)
- GI50 (SN12C): 27.8 µM (inactive)
- GI50 (SNB-19): 27.4 µM (inactive)
- GI50 (SNB-75): 31 µM (inactive)
- GI50 (SR): 6.32 µM (inactive)
- GI50 (SW-620): 25.5 µM (inactive)
- GI50 (T47D): 17.7 µM (inactive)
- GI50 (TK-10): 48.4 µM (inactive)
- GI50 (U-251): 35.2 µM (inactive)
- GI50 (UACC-257): 33.3 µM (inactive)
- GI50 (UACC-62): 25.6 µM (inactive)
- GI50 (UO-31): 31 µM (inactive)

Compound: CC/C(C)=C1\OC(=O)C(C)C(O)C(Cc2cccnc2)NC(=O)C(NC(=O)c2ncccc2O)C(C)OC1=O (centres undefined)
- GI50 (786-0): > 100 µM (inactive)
- GI50 (A498): > 100 µM (inactive)
- GI50 (A549): 74.3 µM (inactive)
- GI50 (ACHN): 6.7 µM (inactive)
- GI50 (BT-549): > 100 µM (inactive)
- GI50 (CAKI-1): > 100 µM (inactive)
- GI50 (COLO 205): > 100 µM (inactive)
- GI50 (DU-145): > 100 µM (inactive)
- GI50 (EKVX): 31.3 µM (inactive)
- GI50 (HCC 2998): > 100 µM (inactive)
- GI50 (HCT-116): 82.2 µM (inactive)
- GI50 (HCT-15): 49.5 µM
- GI50 (HL-60): 62.8 µM (inactive)
- GI50 (HOP-62): 51.1 µM (inactive)
- GI50 (HT-29): 42.2 µM (inactive)
- GI50 (Hs-578T): 29.7 µM (inactive)
- GI50 (IGROV-1): 27.1 µM (inactive)
- GI50 (K562): > 100 µM (inactive)
- GI50 (KM12): 42 µM (inactive)
- GI50 (LOX IMVI): > 100 µM (inactive)
- GI50 (M14): 70.6 µM (inactive)
- GI50 (MCF7): > 100 µM (inactive)
- GI50 (MDA-MB-231): > 100 µM (inactive)
- GI50 (MDA-MB-435): > 100 µM (inactive)
- GI50 (MDA-N): > 100 µM (inactive)
- GI50 (MOLT-4): 53.6 µM (inactive)
- GI50 (Malme-3M): 39.5 µM (inactive)
- GI50 (NCI-H23): > 100 µM (inactive)
- GI50 (NCI-H460): 63.1 µM (inactive)
- GI50 (OVCAR-3): > 100 µM (inactive)
- GI50 (OVCAR-4): > 100 µM (inactive)
- GI50 (OVCAR-5): > 100 µM (inactive)
- GI50 (OVCAR-8): 63.8 µM (inactive)
- GI50 (PC-3): 50 µM (inactive)
- GI50 (RPMI-8226): 90.8 µM (inactive)
- GI50 (SF-268): 58.3 µM (inactive)
- GI50 (SF-295): 44.4 µM (inactive)
- GI50 (SF-539): > 100 µM (inactive)
- GI50 (SK-MEL-28): > 100 µM (inactive)
- GI50 (SK-MEL-2): > 100 µM (inactive)
- GI50 (SK-MEL-5): > 100 µM (inactive)
- GI50 (SK-OV-3): 71.9 µM (inactive)
- GI50 (SN12C): 94 µM (inactive)
- GI50 (SNB-19): > 100 µM (inactive)
- GI50 (SNB-75): 51.6 µM (inactive)
- GI50 (SR): > 100 µM (inactive)
- GI50 (SW-620): > 100 µM (inactive)
- GI50 (T47D): > 100 µM (inactive)
- GI50 (TK-10): > 100 µM (inactive)
- GI50 (U-251): > 100 µM (inactive)
- GI50 (UACC-257): > 100 µM (inactive)
- GI50 (UACC-62): > 100 µM (inactive)

Compound: COc1ccc(C2=C(Cl)c3cc(OC)c(OC)cc3C2=O)cc1OC
- GI50 (786-0): 3.43 µM (inactive)
- GI50 (A498): 18.1 µM (inactive)
- GI50 (A549): 36.9 µM (inactive)
- GI50 (ACHN): 5.57 µM (inactive)
- GI50 (BT-549): 16.1 µM (inactive)
- GI50 (CAKI-1): 2.28 µM (inactive)
- GI50 (CCRF-CEM): 3.93 µM (inactive)
- GI50 (COLO 205): 3.16 µM (inactive)
- GI50 (DU-145): 18.7 µM (inactive)
- GI50 (EKVX): 20.1 µM (inactive)
- GI50 (HCC 2998): 22.6 µM (inactive)
- GI50 (HCT-116): 4.22 µM (inactive)
- GI50 (HCT-15): 6.9 µM
- GI50 (HL-60): 1.8 µM (inactive)
- GI50 (HOP-62): 15.3 µM (inactive)
- GI50 (HOP-92): 1.8 µM (inactive)
- GI50 (HT-29): 5.38 µM (inactive)
- GI50 (Hs-578T): 30 µM (inactive)
- GI50 (IGROV-1): 17.5 µM (inactive)
- GI50 (KM12): 17.4 µM (inactive)
- GI50 (LOX IMVI): 12 µM (inactive)
- GI50 (M14): 4.84 µM (inactive)
- GI50 (MCF7): 13.1 µM (inactive)
- GI50 (MDA-MB-231): 16.4 µM (inactive)
- GI50 (MDA-MB-435): 15.9 µM (inactive)
- GI50 (MDA-N): 18.5 µM (inactive)
- GI50 (MOLT-4): 3.63 µM (inactive)
- GI50 (Malme-3M): 13.2 µM (inactive)
- GI50 (NCI-H226): 38.7 µM (inactive)
- GI50 (NCI-H23): 12 µM (inactive)
- GI50 (NCI-H522): 12.6 µM (inactive)
- GI50 (NCI/ADR-RES): 21.9 µM (inactive)
- GI50 (OVCAR-3): 1.77 µM (inactive)
- GI50 (OVCAR-4): 12.1 µM (inactive)
- GI50 (OVCAR-5): 19.8 µM (inactive)
- GI50 (OVCAR-8): 16.9 µM (inactive)
- GI50 (RPMI-8226): 18.1 µM (inactive)
- GI50 (RXF 393): 5.7 µM (inactive)
- GI50 (SF-268): 18.9 µM (inactive)
- GI50 (SF-295): > 100 µM (inactive)
- GI50 (SF-539): 21.3 µM (inactive)
- GI50 (SK-MEL-2): 14.4 µM (inactive)
- GI50 (SK-MEL-5): 15.9 µM (inactive)
- GI50 (SK-OV-3): 21 µM (inactive)
- GI50 (SN12C): 18 µM (inactive)
- GI50 (SNB-19): > 100 µM (inactive)
- GI50 (SNB-75): 61 µM (inactive)
- GI50 (SR): 6.11 µM (inactive)
- GI50 (SW-620): 12.7 µM (inactive)
- GI50 (T47D): 2.95 µM (inactive)
- GI50 (TK-10): 13 µM (inactive)
- GI50 (UACC-257): 4.28 µM (inactive)
- GI50 (UACC-62): 15.4 µM (inactive)
- GI50 (UO-31): 16.6 µM (inactive)
